Results: US20250170090A1, “METHOD FOR PREVENTING OR TREATING DISEASE OR DISORDER ASSOCIATED WITH ANTINEOPLASTIC AGENT” (ONQUALITY PHARMACEUTICALS CHINA LTD., priority 2022, published 2025)
Like-named read-outs stand apart in the source and are kept apart here.

What was measured:
[1] = tested on: hand-foot syndrome caused by anti-tumor agents; assay: Treatment of established hand-foot syndrome caused by anti-tumor agents in rats (Table 4); assay type: in vivo
Method in brief: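 Rats (about 200 g), 10 per group, given anti-tumor agent by gavage (Cremophor EL:ethanol 1:1, diluted about 3 times with PBS), treated for established hand-foot syndrome with NO-NSAID ointment. Control rate is the blank-group incidence minus the treatment-group incidence.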

[2] = tested on: hand-foot syndrome induced by anti-tumor agents; assay: Prevention of hand-foot syndrome induced by anti-tumor agents in rats, NO-NSAID ointment on hind paws (Table 2-2); assay type: in vivo, SD rats; settings: Rattus norvegicus, topical, read-out: Control rate; for responders at 1 %: ointment 1% wt; for responders at 3 %: ointment 3% wt; for responders at 0.5 %: ointment 0.50% wt; for responders at 2.5 %: ointment 2.50% wt; for responders at 5 %: ointment 5% wt
Method in brief: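 Female SD rats (8 weeks, ~200 g; 10/group) received anti-tumour agents by daily oral gavage in Cremophor EL:ethanol 1:1 diluted ~3× with PBS. NO-NSAID or blank ointment was applied to hind paws once daily, 4 h restrained, then wiped off. Control rate = blank-group minus treated-group hand-foot syndrome incidence.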

[3] = tested on: gastric epithelial cells (GES-1); assay: CCK-8 cell viability: alleviation of proliferative toxicity of anti-tumor agents on GES-1 (Table 8-3); assay type: cell-based, human; settings: NO-NSAID 100 μM
Method in brief: (§1)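 Cells seeded at 5,000-10,000 per well and exposed to anti-tumor agent (DMSO solvent) alone or with NO-NSAID (ethanol or water solvent), with solvent controls used for correction. Viability read by CCK-8 after 24-48 hours; proliferative toxicity and its alleviation compared by t test.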

[4] = tested on: human oral keratinocytes (HOK); assay: CCK-8 cell viability: alleviation of proliferative toxicity of anti-tumor agents on HOK (Table 8-2); assay type: cell-based; settings: NO-NSAID 100 μM
Method in brief: as §1

[5] = tested on: human intestinal epithelial cells (FHs 74 Int); assay: CCK-8 cell viability: alleviation of proliferative toxicity of anti-tumor agents on FHs 74 Int (Table 8-4); assay type: cell-based; settings: NO-NSAID 100 μM
Method in brief: as §1

[6] = 120 h, Sorafenib 80 mg/kg once a day, Days 5
[7] = 432 h, Regorafenib 90 mg/kg once a day, Days 18
[8] = 432 h, Cabozantinib 50 mg/kg once a day, Days 18
[9] = 432 h, Lenvatinib 100 mg/kg twice a day, Days 18
[10] = 432 h, Nintedanib 110 mg/kg once a day, Days 18

Q: Which Response rate ([1]; Regorafenib 90 mg/kg once every two days, ointment 1% wt, Days 7) does the source give for CC(=O)Oc1ccccc1C(=O)OCOC(=O)CCCCCO[N+](=O)[O-] [Compound A3] here?
A: 33.33%

Q: And the Response rate ([1]; Sorafenib 80 mg/kg once every two days, ointment 3% wt, Days 7)?
A: 42.86%

Q: And the responders at 1 % [2, 6]?
A: 50%

Q: What about the responders at 3 % [2, 6] of the same compound?
A: 57.1%

Q: What about the responders at 1 % [2, 7] of the same compound?
A: 42.9%

Q: And the responders at 3 % [2, 7]?
A: 71.4%

Q: What about the “Response rate % (average)” value ([3]; Afatinib (10 μM)) of the same compound?
A: 7%

Q: And the “Response rate % (average)” value ([3]; Cabozantinib (5 μM))?
A: 14%

Q: What about the “Response rate % (average)” value ([3]; Dabrafenib (10 μM)) of the same compound?
A: 7%

Q: And the “Response rate % (average)” value ([3]; Everolimus (5 μM))?
A: 19%

Q: What about the “Response rate % (average)” value ([3]; Infigratinib (15 μM)) of the same compound?
A: 28%

Q: And the “Response rate % (average)” value ([3]; Lapatinib (5 μM))?
A: 20%

Q: And the “Response rate % (average)” value ([3]; Lenvatinib (10 μM))?
A: 22%

Q: And the “Response rate % (average)” value ([3]; Olmutinib (10 μM))?
A: 33%

Q: What about the “Response rate % (average)” value ([3]; Regorafenib (5 μM)) of the same compound?
A: 26%

Q: What about the “Response rate % (average)” value ([3]; Selumetinib (5 μM)) of the same compound?
A: 19%

Q: And the “Response rate % (average)” value ([3]; Sorafenib (5 μM))?
A: 24%

Q: And the “Response rate % (average)” value ([3]; Sunitinib (5 μM))?
A: 4%

Q: What about the “Response rate % (average)” value ([4]; Afatinib (10 μM)) of the same compound?
A: 27%

Q: What about the “Response rate % (average)” value ([4]; Cabozantinib (5 μM)) of the same compound?
A: 8%

Q: And the “Response rate % (average)” value ([4]; Dabrafenib (10 μM))?
A: 4%

Q: And the “Response rate % (average)” value ([4]; Everolimus (5 μM))?
A: −8%

Q: What about the “Response rate % (average)” value ([4]; Infigratinib (15 μM)) of the same compound?
A: 7%

Q: And the “Response rate % (average)” value ([4]; Lapatinib (5 μM))?
A: −4%

Q: And the “Response rate % (average)” value ([4]; Lenvatinib (10 μM))?
A: 18%

Q: And the “Response rate % (average)” value ([4]; Olmutinib (10 μM))?
A: 35%

Q: What about the “Response rate % (average)” value ([4]; Regorafenib (5 μM)) of the same compound?
A: 12%

Q: And the “Response rate % (average)” value ([4]; Selumetinib (5 μM))?
A: 16%

Q: And the “Response rate % (average)” value ([4]; Sorafenib (5 μM))?
A: 30%

Q: What about the “Response rate % (average)” value ([4]; Sunitinib (5 μM)) of the same compound?
A: 14%

Q: What about the “Response rate % (average)” value ([5]; Afatinib (10 μM)) of the same compound?
A: 26%

Q: What about the “Response rate % (average)” value ([5]; Cabozantinib (5 μM)) of the same compound?
A: 13%

Q: What about the “Response rate % (average)” value ([5]; Dabrafenib (10 μM)) of the same compound?
A: −8%

Q: What about the “Response rate % (average)” value ([5]; Everolimus (5 μM)) of the same compound?
A: 14%

Q: And the “Response rate % (average)” value ([5]; Infigratinib (15 μM))?
A: 6%

Q: What about the “Response rate % (average)” value ([5]; Lapatinib (5 μM)) of the same compound?
A: 23%

Q: And the “Response rate % (average)” value ([5]; Lenvatinib (10 μM))?
A: 25%

Q: What about the “Response rate % (average)” value ([5]; Olmutinib (10 μM)) of the same compound?
A: 29%

Q: What about the “Response rate % (average)” value ([5]; Regorafenib (5 μM)) of the same compound?
A: 29%

Q: What about the “Response rate % (average)” value ([5]; Selumetinib (5 μM)) of the same compound?
A: 29%

Q: What about the “Response rate % (average)” value ([5]; Sorafenib (5 μM)) of the same compound?
A: 26%

Q: What about the “Response rate % (average)” value ([5]; Sunitinib (5 μM)) of the same compound?
A: 25%

Q: What does the source list for COc1ccc2cc(C(C)C(=O)OCCCCO[N+](=O)[O-])ccc2c1 (stereo not drawn) [Compound A5]?
A: Response rate ([1]; Apatinib 105 mg/kg once every two days, ointment 2.50% wt, Days 6): 28.57%; Response rate ([1]; Cabozantinib 50 mg/kg once every two days, ointment 1% wt, Days 11): 33.33%; Response rate ([1]; Encorafenib 80 mg/kg once every two days, ointment 2.50% wt, Days 7): 40.00%; Response rate ([1]; Erdafitinib 45 mg/kg once every two days, ointment 2.50% wt, Days 13): 40.00%; Response rate ([1]; Fruquintinib 40 mg/kg once every two days, ointment 2.50% wt, Days 8): 28.57%; Response rate ([1]; Lenvatinib 65 mg/kg once a day, ointment 2.50% wt, Days 12): 42.86%; Response rate ([1]; Olmutinib 100 mg/kg once every two days, ointment 2.50% wt, Days 10): 50.00%; Response rate ([1]; Regorafenib 90 mg/kg once every two days, ointment 5% wt, Days 6): 57.14%; Response rate ([1]; Sorafenib 80 mg/kg once every two days, ointment 2.50% wt, Days 5): 50.00%; Response rate ([1]; Sunitinib 120 mg/kg once every two days, ointment 2.50% wt, Days 7): 33.33%; responders at 0.5 % [2, 6]: 28.6%; responders at 1 % [2, 6]: 50%; responders at 2.5 % [2, 6]: 71.4%; responders at 5 % [2, 6]: 80%; responders at 2.5 % ([2]; 360 h, Apatinib 105 mg/kg once a day, Days 15): 42.9%; responders at 2.5 % ([2]; 360 h, Encorafenib 80 mg/kg once a day, Days 15): 66.7%; responders at 2.5 % ([2]; 360 h, Lapatinib 120 mg/kg twice a day, Days 15): 60%; responders at 2.5 % ([2]; 360 h, Sunitinib 120 mg/kg once a day, Days 15): 57.1%; responders at 2.5 % ([2]; 384 h, Fruquintinib 40 mg/kg once a day, Days 16): 42.9%; responders at 2.5 % ([2]; 432 h, Anlotinib 20 mg/kg once a day, Days 18): 50%; responders at 2.5 % ([2]; 432 h, Axitinib 50 mg/kg once a day, Days 18): 66.7%; responders at 1 % [2, 8]: 42.9%; responders at 2.5 % [2, 8]: 60%; responders at 5 % [2, 8]: 57.1%; responders at 1 % [2, 9]: 28.6%; responders at 2.5 % [2, 9]: 71.4%; responders at 5 % [2, 9]: 71.4%; responders at 1 % [2, 10]: 40%; responders at 2.5 % [2, 10]: 66.7%; responders at 5 % [2, 10]: 50%; responders at 0.5 % [2, 7]: 50%; responders at 1 % [2, 7]: 71.4%; responders at 2.5 % [2, 7]: 71.4%; responders at 5 % [2, 7]: 83.3%; responders at 2.5 % ([2]; 480 h, Erdafitinib 45 mg/kg once a day, Days 20): 57.1%; responders at 2.5 % ([2]; 480 h, Olmutinib 100 mg/kg once a day, Days 20): 66.7%; Response rate % (average) ([3]; Afatinib (10 μM)): 18%; Response rate % (average) ([3]; Cabozantinib (5 μM)): 37%; Response rate % (average) ([3]; Dabrafenib (10 μM)): 12%; Response rate % (average) ([3]; Everolimus (5 μM)): 33%; Response rate % (average) ([3]; Infigratinib (15 μM)): 36%; Response rate % (average) ([3]; Lapatinib (5 μM)): 40%; Response rate % (average) ([3]; Lenvatinib (10 μM)): 29%; Response rate % (average) ([3]; Olmutinib (10 μM)): 35%; Response rate % (average) ([3]; Regorafenib (5 μM)): 14%; Response rate % (average) ([3]; Selumetinib (5 μM)): 12%; Response rate % (average) ([3]; Sorafenib (5 μM)): 22%; Response rate % (average) ([3]; Sunitinib (5 μM)): 21%; Response rate % (average) ([4]; Afatinib (10 μM)): 36%; Response rate % (average) ([4]; Cabozantinib (5 μM)): 32%; Response rate % (average) ([4]; Dabrafenib (10 μM)): 8%; Response rate % (average) ([4]; Everolimus (5 μM)): 10%; Response rate % (average) ([4]; Infigratinib (15 μM)): 17%; Response rate % (average) ([4]; Lapatinib (5 μM)): 22%; Response rate % (average) ([4]; Lenvatinib (10 μM)): 25%; Response rate % (average) ([4]; Olmutinib (10 μM)): 38%; Response rate % (average) ([4]; Regorafenib (5 μM)): −2%; Response rate % (average) ([4]; Selumetinib (5 μM)): 8%; Response rate % (average) ([4]; Sorafenib (5 μM)): 28%; Response rate % (average) ([4]; Sunitinib (5 μM)): 29%; Response rate % (average) ([5]; Afatinib (10 μM)): 34%; Response rate % (average) ([5]; Cabozantinib (5 μM)): 36%; Response rate % (average) ([5]; Dabrafenib (10 μM)): −3%; Response rate % (average) ([5]; Everolimus (5 μM)): 28%; Response rate % (average) ([5]; Infigratinib (15 μM)): 16%; Response rate % (average) ([5]; Lapatinib (5 μM)): 43%; Response rate % (average) ([5]; Lenvatinib (10 μM)): 32%; Response rate % (average) ([5]; Olmutinib (10 μM)): 31%; Response rate % (average) ([5]; Regorafenib (5 μM)): 17%; Response rate % (average) ([5]; Selumetinib (5 μM)): 23%; Response rate % (average) ([5]; Sorafenib (5 μM)): 24%; Response rate % (average) ([5]; Sunitinib (5 μM)): 38%
